Reference: PubChem BioAssay AID248 (DTP/NCI, 2004)
Several values for one entry are separate records, joined by “and”; a condition that tells them apart may be missing. Identical values can stand only once. Inconclusive results and toxic doses are left out. No stated cut-off is given here; in the data, active means T/C of 150% or more; inactive means T/C below 125%.

System: L1210 leukemia ip in BDF1 mice, survival T/C
Test: NCI In Vivo Anticancer Drug Screen. Data for tumor model L1210 Leukemia (intraperitoneal) in B6D2F1 (BDF1) mice
Settings: endpoint: mean survival time, higher = longer survival
How it was run: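 Tumor was transplanted into mice, which were then dosed with test compound or vehicle alone. Survival was recorded for each group, and the treated figure was expressed relative to the control figure.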

[1] = dose: 100.0 mg/kg/injection, schedule: Q04DX003 (ip), vehicle: Klucel (hydroxypropylcellulose) (HPC)
[2] = dose: 200.0 mg/kg/injection, schedule: Q04DX003 (ip), vehicle: Klucel (hydroxypropylcellulose) (HPC)
[3] = dose: 400.0 mg/kg/injection, schedule: Q04DX003 (ip), vehicle: Klucel (hydroxypropylcellulose) (HPC)
[4] = dose: 100.0 mg/kg/injection, schedule: Q01DX001 (ip), vehicle: saline
[5] = dose: 200.0 mg/kg/injection, schedule: Q01DX001 (ip), vehicle: saline
[6] = dose: 400.0 mg/kg/injection, schedule: Q01DX001 (ip), vehicle: saline
[7] = dose: 50.0 mg/kg/injection, schedule: Q01DX009 (ip), vehicle: saline
[8] = dose: 50.0 mg/kg/injection, schedule: Q04DX003 (ip), vehicle: saline
[9] = dose: 100.0 mg/kg/injection, schedule: Q01DX009 (ip), vehicle: saline
[10] = dose: 100.0 mg/kg/injection, schedule: Q04DX003 (ip), vehicle: saline
[11] = dose: 100.0 mg/kg/injection, schedule: Q04DX003 (ip), vehicle: saline with Tween-80
[12] = dose: 200.0 mg/kg/injection, schedule: Q04DX003 (ip), vehicle: saline with Tween-80
[13] = dose: 400.0 mg/kg/injection, schedule: Q04DX003 (ip), vehicle: saline with Tween-80
[14] = dose: 50.0 mg/kg/injection, schedule: Q01DX009 (ip), vehicle: Klucel (hydroxypropylcellulose) (HPC)
[15] = dose: 100.0 mg/kg/injection, schedule: Q01DX009 (ip), vehicle: Klucel (hydroxypropylcellulose) (HPC)

Measured: T/C

NC(N)=N/N=C/C/C=N/N=C(N)N
inactive: dose: 15.0 mg/kg/injection, schedule: Q01DX Z (ip), vehicle: saline 97 % of control | dose: 30.0 mg/kg/injection, schedule: Q01DX Z (ip), vehicle: saline 100 % of control | dose: 60.0 mg/kg/injection, schedule: Q01DX Z (ip), vehicle: saline 96 % of control | dose: 120.0 mg/kg/injection, schedule: Q01DX Z (ip), vehicle: saline 100 % of control | dose: 120.0 mg/kg/injection, schedule: Q01DX Z (oral), vehicle: saline 102 % of control | dose: 240.0 mg/kg/injection, schedule: Q01DX Z (oral), vehicle: saline 102 % of control | dose: 480.0 mg/kg/injection, schedule: Q01DX Z (oral), vehicle: saline 107 % of control | dose: 960.0 mg/kg/injection, schedule: Q01DX Z (oral), vehicle: saline 103 % of control

CC(=O)Oc1c2ccccc2c(OC(C)=O)c2[nH]c(-c3ccccc3)cc12
inactive: [1] 90 % of control | [2] 93 % of control | [3] 90 % of control

O=[N+]([O-])c1ccc(Cl)cc1C1OCCO1
inactive: [4] 93 % of control | [5] 93 % of control | [6] 104 % of control

Cc1cccc(N2CCN(C(=S)c3ccccc3)CC2)c1
inactive: [4] 93 % of control | [5] 93 % of control | [6] 98 % of control

CCOC(CN=Cc1ccc(Cl)c(Cl)c1)OCC
inactive: [1] 94 % of control | [2] 97 % of control | [3] 96 % of control

O/C=C(\Cl)CCl
inactive: dose: 50.0 mg/kg/injection, schedule: Q01DX001 (ip), vehicle: saline 100 % of control | [7] 107 % of control and 108 % of control | dose: 50.0 mg/kg/injection, schedule: Q04DX002 (ip), vehicle: saline 97 % of control and 106 % of control | [8] 97 % of control | [4] 90 % of control | [9] 101 % of control and 104 % of control | [10] 106 % of control

Nc1cc(S(N)(=O)=O)ccc1N1CCCCC1
inactive: [11] 95 % of control | [12] 96 % of control | [13] 101 % of control

CC(C)C1C(=O)N2CCCC2C2(O)OC(NC(=O)C3C=C4c5cccc6[nH]cc(c56)CC4N(C)C3)(C(C)C)C(=O)N12 (stereo unspecified)
inactive: dose: 25.0 mg/kg/injection, schedule: Q01DX009 (ip), vehicle: saline 94 % of control | [7] 91 % of control | [8] 106 % of control | [9] 94 % of control | [10] 101 % of control | dose: 200.0 mg/kg/injection, schedule: Q04DX003 (ip), vehicle: saline 108 % of control | dose: 400.0 mg/kg/injection, schedule: Q04DX003 (ip), vehicle: saline 95 % of control

CCOC(=O)N/N=C(/C)c1cccc([N+](=O)[O-])c1
inactive: dose: 25.0 mg/kg/injection, schedule: Q01DX009 (ip), vehicle: Klucel (hydroxypropylcellulose) (HPC) 103 % of control | [14] 103 % of control | [15] 100 % of control and 111 % of control

OCCCCCCCCCCC[n+]1ccccc1Cc1ccccc1
inactive: dose: 75.0 mg/kg/injection, schedule: Q01DX001 (ip), vehicle: Klucel (hydroxypropylcellulose) (HPC) 92 % of control

COc1ccccc1NC(N)=O
inactive: [11] 98 % of control | [12] 107 % of control | [13] 98 % of control

COc1ccc(NC(=O)COc2ccc(C)cc2C)cc1
inactive: dose: 100.0 mg/kg/injection, schedule: Q04DX002 (ip), vehicle: Klucel (hydroxypropylcellulose) (HPC) 95 % of control | dose: 200.0 mg/kg/injection, schedule: Q04DX002 (ip), vehicle: Klucel (hydroxypropylcellulose) (HPC) 103 % of control | dose: 400.0 mg/kg/injection, schedule: Q04DX002 (ip), vehicle: Klucel (hydroxypropylcellulose) (HPC) 89 % of control

O=C1CCC(c2ccccc2)c2ccccc21 (stereo unspecified)
inactive: dose: 100.0 mg/kg/injection, schedule: Q01DX001 (ip), vehicle: Klucel (hydroxypropylcellulose) (HPC) 99 % of control | dose: 200.0 mg/kg/injection, schedule: Q01DX001 (ip), vehicle: Klucel (hydroxypropylcellulose) (HPC) 97 % of control | dose: 400.0 mg/kg/injection, schedule: Q01DX001 (ip), vehicle: Klucel (hydroxypropylcellulose) (HPC) 100 % of control

O=C(O)CCCNC(=O)C(F)(F)F
inactive: dose: 100.0 mg/kg/injection, schedule: Q01DX001 (ip), vehicle: saline with Tween-80 95 % of control and 98 % of control | dose: 100.0 mg/kg/injection, schedule: Q04DX002 (ip), vehicle: saline with Tween-80 101 % of control and 103 % of control | [11] 100 % of control | dose: 200.0 mg/kg/injection, schedule: Q01DX001 (ip), vehicle: saline with Tween-80 95 % of control and 91 % of control | dose: 200.0 mg/kg/injection, schedule: Q04DX002 (ip), vehicle: saline with Tween-80 95 % of control and 92 % of control | [12] 95 % of control and 96 % of control | dose: 400.0 mg/kg/injection, schedule: Q01DX001 (ip), vehicle: saline with Tween-80 96 % of control and 92 % of control | dose: 400.0 mg/kg/injection, schedule: Q04DX002 (ip), vehicle: saline with Tween-80 100 % of control and 108 % of control | [13] 93 % of control and 100 % of control

CCC(C)C(C#N)(CCN(CC)CC)c1ccccc1 (stereo unspecified)
inactive: [14] 104 % of control | [15] 100 % of control | [1] 111 % of control | [2] 103 % of control

CC(=O)N(/C=C/C=C/C=C1\C(=O)N(c2ccc(S(=O)(=O)O)cc2)N=C1C)c1ccccc1
inactive: [4] 99 % of control | [5] 98 % of control | [6] 88 % of control
